Activity calls are given as the source filed them. No cut-off for these calls is given here.

The target in one test is Phosphatidylinositol 4,5-bisphosphate 3-kinase catalytic subunit alpha isoform (Homo sapiens, UniProt P42336). The test can be described thus: Inhibition of PI3Kalpha (unknown origin) using PIP2 as substrate in presence of ATP measured after 1 hr by ADP-Glo assay.
Sequence of Phosphatidylinositol 4,5-bisphosphate 3-kinase catalytic subunit alpha isoform (P42336 whole entry, canonical isoform): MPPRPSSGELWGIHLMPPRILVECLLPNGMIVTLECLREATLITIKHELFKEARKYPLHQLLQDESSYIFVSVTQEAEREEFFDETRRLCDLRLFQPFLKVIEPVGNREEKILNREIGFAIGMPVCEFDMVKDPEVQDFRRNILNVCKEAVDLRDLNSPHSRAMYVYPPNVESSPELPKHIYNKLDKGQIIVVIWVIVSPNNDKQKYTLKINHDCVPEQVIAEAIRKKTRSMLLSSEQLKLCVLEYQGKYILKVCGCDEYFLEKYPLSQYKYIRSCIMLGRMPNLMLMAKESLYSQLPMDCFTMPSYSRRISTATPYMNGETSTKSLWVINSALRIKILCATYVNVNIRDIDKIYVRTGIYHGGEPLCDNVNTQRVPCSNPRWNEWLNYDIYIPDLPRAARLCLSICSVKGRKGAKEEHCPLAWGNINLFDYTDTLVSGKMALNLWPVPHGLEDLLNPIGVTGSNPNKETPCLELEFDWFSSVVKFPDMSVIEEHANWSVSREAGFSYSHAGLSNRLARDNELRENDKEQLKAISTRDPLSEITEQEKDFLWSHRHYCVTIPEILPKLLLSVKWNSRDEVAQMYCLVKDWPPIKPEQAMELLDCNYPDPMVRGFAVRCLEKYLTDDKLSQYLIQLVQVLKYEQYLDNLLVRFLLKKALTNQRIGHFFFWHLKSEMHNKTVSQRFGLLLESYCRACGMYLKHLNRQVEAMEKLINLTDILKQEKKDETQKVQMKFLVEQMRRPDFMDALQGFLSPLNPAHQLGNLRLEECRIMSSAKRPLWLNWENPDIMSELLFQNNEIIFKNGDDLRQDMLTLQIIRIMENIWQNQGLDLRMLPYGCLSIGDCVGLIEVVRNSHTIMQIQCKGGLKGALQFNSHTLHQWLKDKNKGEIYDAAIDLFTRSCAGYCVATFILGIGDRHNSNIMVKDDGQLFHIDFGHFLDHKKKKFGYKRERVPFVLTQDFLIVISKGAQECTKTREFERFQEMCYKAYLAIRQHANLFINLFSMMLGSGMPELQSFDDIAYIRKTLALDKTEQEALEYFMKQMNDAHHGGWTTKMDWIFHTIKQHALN
Settings: not given
For orientation: ADP-Glo turns the ADP formed in a reaction into a luminescent signal.
On to `c1ccc(CNc2nc3cc(-c4nc(N5CCOCC5)nc(N5CCOCC5)n4)ccc3o2)cc1`, for which the IC50 was found to be 63 nM.
Turning to `CC(C)C(=O)Nc1nc2cc(-c3nc(N4CCOCC4)nc(N4CCOCC4)n3)ccc2o1`, the IC50 was 397 nM.
In the case of `CC(=O)N1CCN(c2nc(-c3ccc4nc(N)sc4c3)nc(N3CCOCC3)n2)CC1`, the IC50 came out at 497 nM.
As to `CC(C)(C)OC(=O)N1CCN(c2nc(-c3ccc4oc(N)nc4c3)nc(N3CCOCC3)n2)CC1`, the IC50 is 259 nM.
Still for that read-out and setting: the result for `Nc1nc2ccc(-c3nc(N4CCOCC4)nc(N4CCOCC4)n3)cc2s1` reads 357 nM; that for `CN(C)c1nc2cc(-c3nc(N4CCOCC4)nc(N4CCOCC4)n3)ccc2o1`, 2220 nM.
The same measure, in the same setting: under `CN(C)c1nc2ccc(-c3nc(Nc4ccc(C(F)(F)F)cc4)nc(N4CCOCC4)n3)cc2s1` stands more than 10000 nM; under `O=[N+]([O-])c1ccc(CNc2nc3cc(-c4nc(N5CCOCC5)nc(N5CCOCC5)n4)ccc3o2)cc1`, 72 nM; under `CC(=O)N1CCN(c2nc(-c3ccc4oc(N)nc4c3)nc(N3CCOCC3)n2)CC1`, 23 nM.
Same read-out and setting: the result for `O=C(Nc1nc2cc(-c3nc(N4CCOCC4)nc(N4CCOCC4)n3)ccc2o1)C1CCCCC1` reads 7450 nM; that for `CN(C)c1nc2ccc(-c3nc(N4CCOCC4)nc(N4CCN(S(C)(=O)=O)CC4)n3)cc2s1`, more than 10000 nM; that for `FC(F)(F)c1ccc(CNc2nc3cc(-c4nc(N5CCOCC5)nc(N5CCOCC5)n4)ccc3o2)cc1`, 300 nM.
On to `CN(C)c1nc2ccc(-c3nc(N4CCOCC4)nc(N4CCOCC4)n3)cc2s1`, for which the IC50 was more than 10000 nM.
The same measure, in the same setting: the result for `COC(=O)c1ccc(CNc2nc3cc(-c4nc(N5CCOCC5)nc(N5CCOCC5)n4)ccc3o2)cc1` reads 99 nM; that for `CC(=O)Nc1nc2cc(-c3nc(N4CCOCC4)nc(N4CCOCC4)n3)ccc2o1`, 66 nM.
As to `Nc1nc2cc(-c3nc(NC4CCOCC4)nc(N4CCOCC4)n3)ccc2o1`, the IC50 turned out to be 4240 nM.
The same measure, in the same setting: the result for `NC(=O)c1ccc(CNc2nc3cc(-c4nc(N5CCOCC5)nc(N5CCOCC5)n4)ccc3o2)cc1` reads 47 nM; that for `CC(C)N1CCN(c2nc(-c3ccc4oc(N)nc4c3)nc(N3CCOCC3)n2)CC1`, 1050 nM.
Consider `CCN1CCN(c2nc(-c3ccc4oc(N)nc4c3)nc(N3CCOCC3)n2)CC1`, for which the IC50 came to 598 nM.
Still for that read-out and setting: under `CC(C)(C)OC(=O)N1CCN(c2nc(-c3ccc4nc(N)sc4c3)nc(N3CCOCC3)n2)CC1` stands 432 nM; under `Nc1nc2ccc(-c3nc(Nc4ccc5c(c4)OCO5)nc(Nc4ccc5c(c4)OCO5)n3)cc2o1`, more than 10000 nM.
As to `CS(=O)(=O)N1CCN(c2nc(-c3ccc4oc(N)nc4c3)nc(N3CCOCC3)n2)CC1`, the IC50 was 32 nM.
In the case of `Nc1nc2cc(-c3nc(NC4CCC(C(F)(F)F)CC4)nc(N4CCOCC4)n3)ccc2o1` (stereo not drawn), the IC50 amounted to 703 nM.
As to `CC(=O)Nc1nc2ccc(-c3nc(N4CCOCC4)nc(N4CCOCC4)n3)cc2s1`, the IC50 turned out to be 8750 nM.
`COC(=O)c1ccc(CNc2nc3ccc(-c4nc(N5CCN(C(C)=O)CC5)nc(N5CCN(C(C)=O)CC5)n4)cc3o2)cc1`: the IC50 was more than 10000 nM.
The same measure, in the same setting: the result for `N#Cc1ccc(CNc2nc3cc(-c4nc(N5CCOCC5)nc(N5CCOCC5)n4)ccc3o2)cc1` reads 86 nM; that for `CC(C)c1ccc(CNc2nc3cc(-c4nc(N5CCOCC5)nc(N5CCOCC5)n4)ccc3o2)cc1`, 311 nM; that for `Nc1nc2cc(-c3nc(Nc4cccc(C(F)(F)F)c4)nc(N4CCOCC4)n3)ccc2o1`, 1410 nM.
As for `c1cc2oc(NC3CCCC3)nc2cc1-c1nc(N2CCOCC2)nc(N2CCOCC2)n1`, the IC50 was found to be 2820 nM.
Still for that read-out and setting: under `CC(=O)N1CCN(c2nc(-c3ccc4nc(N)oc4c3)nc(N3CCN(C(C)=O)CC3)n2)CC1` stands more than 10000 nM; under `O=C(O)c1ccc(CNc2nc3ccc(-c4nc(N5CCOCC5)nc(N5CCOCC5)n4)cc3o2)cc1`, 6 nM.
As to `Nc1nc2ccc(-c3nc(N4CCOCC4)nc(N4CCC(C(F)(F)F)CC4)n3)cc2s1`, the IC50 is 5360 nM.
Take `CS(=O)(=O)N1CCN(c2nc(-c3ccc4nc(N)oc4c3)nc(N3CCN(S(C)(=O)=O)CC3)n2)CC1`: the IC50 is more than 10000 nM.
Same read-out and setting: the result for `COc1ccc(CNc2nc3cc(-c4nc(N5CCOCC5)nc(N5CCOCC5)n4)ccc3o2)cc1` reads 81 nM.
The same measure, in the same setting: under `CC(C)Nc1nc2cc(-c3nc(N4CCOCC4)nc(N4CCOCC4)n3)ccc2o1` stands 2770 nM.
On to `CC(=O)N1CCN(c2nc(-c3ccc4nc(NCc5ccc(C(=O)O)cc5)oc4c3)nc(N3CCN(C(C)=O)CC3)n2)CC1`, for which the IC50 is more than 10000 nM.
The same measure, in the same setting: the result for `Nc1nc2cc(-c3nc(N4CCNCC4)nc(N4CCOCC4)n3)ccc2o1` reads 569 nM; that for `CN(C)c1nc2ccc(-c3nc(N4CCNCC4)nc(N4CCOCC4)n3)cc2s1`, more than 10000 nM.

The next test deals with Phosphatidylinositol 4,5-bisphosphate 3-kinase catalytic subunit beta isoform (Homo sapiens, UniProt P42338). The test can be described thus: Inhibition of PI3Kbeta (unknown origin) in presence of [33P]-ATP incubated for 2 hrs by hotspot kinase assay.
Sequence of Phosphatidylinositol 4,5-bisphosphate 3-kinase catalytic subunit beta isoform (P42338 whole entry, canonical isoform): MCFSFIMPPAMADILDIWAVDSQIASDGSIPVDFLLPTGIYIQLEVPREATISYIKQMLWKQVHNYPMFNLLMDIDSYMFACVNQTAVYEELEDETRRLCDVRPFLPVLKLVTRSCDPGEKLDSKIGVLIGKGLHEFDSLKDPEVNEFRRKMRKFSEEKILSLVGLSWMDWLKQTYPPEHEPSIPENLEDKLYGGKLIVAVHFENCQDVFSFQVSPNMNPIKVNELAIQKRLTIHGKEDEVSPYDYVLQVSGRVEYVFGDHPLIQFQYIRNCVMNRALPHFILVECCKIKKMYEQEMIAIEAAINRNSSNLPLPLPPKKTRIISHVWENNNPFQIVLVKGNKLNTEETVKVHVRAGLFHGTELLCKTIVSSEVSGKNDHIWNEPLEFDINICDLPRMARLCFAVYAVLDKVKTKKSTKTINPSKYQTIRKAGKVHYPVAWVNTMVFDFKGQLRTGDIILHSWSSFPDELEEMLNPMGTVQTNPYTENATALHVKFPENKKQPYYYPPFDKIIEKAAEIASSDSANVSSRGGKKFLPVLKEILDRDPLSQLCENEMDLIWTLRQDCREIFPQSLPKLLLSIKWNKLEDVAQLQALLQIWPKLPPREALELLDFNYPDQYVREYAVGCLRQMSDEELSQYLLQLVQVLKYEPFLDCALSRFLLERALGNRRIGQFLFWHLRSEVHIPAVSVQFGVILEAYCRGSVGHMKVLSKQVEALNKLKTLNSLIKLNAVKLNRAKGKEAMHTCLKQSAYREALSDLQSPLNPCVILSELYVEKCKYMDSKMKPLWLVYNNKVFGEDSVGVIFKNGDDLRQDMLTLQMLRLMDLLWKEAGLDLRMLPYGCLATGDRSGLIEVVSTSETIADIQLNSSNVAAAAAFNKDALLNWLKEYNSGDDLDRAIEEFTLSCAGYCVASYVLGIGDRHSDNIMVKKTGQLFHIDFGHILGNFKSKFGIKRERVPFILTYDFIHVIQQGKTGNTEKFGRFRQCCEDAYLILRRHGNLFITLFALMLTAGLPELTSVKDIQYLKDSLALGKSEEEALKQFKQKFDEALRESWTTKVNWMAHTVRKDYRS
Settings: not given
On to `O=C(O)c1ccc(CNc2nc3ccc(-c4nc(N5CCOCC5)nc(N5CCOCC5)n4)cc3o2)cc1`, for which the IC50 was found to be 100 nM.

The target of another test is T1, Phosphatidylinositol 4,5-bisphosphate 3-kinase catalytic subunit delta isoform (Homo sapiens, UniProt O00329).
T1 sequence (O00329 whole entry): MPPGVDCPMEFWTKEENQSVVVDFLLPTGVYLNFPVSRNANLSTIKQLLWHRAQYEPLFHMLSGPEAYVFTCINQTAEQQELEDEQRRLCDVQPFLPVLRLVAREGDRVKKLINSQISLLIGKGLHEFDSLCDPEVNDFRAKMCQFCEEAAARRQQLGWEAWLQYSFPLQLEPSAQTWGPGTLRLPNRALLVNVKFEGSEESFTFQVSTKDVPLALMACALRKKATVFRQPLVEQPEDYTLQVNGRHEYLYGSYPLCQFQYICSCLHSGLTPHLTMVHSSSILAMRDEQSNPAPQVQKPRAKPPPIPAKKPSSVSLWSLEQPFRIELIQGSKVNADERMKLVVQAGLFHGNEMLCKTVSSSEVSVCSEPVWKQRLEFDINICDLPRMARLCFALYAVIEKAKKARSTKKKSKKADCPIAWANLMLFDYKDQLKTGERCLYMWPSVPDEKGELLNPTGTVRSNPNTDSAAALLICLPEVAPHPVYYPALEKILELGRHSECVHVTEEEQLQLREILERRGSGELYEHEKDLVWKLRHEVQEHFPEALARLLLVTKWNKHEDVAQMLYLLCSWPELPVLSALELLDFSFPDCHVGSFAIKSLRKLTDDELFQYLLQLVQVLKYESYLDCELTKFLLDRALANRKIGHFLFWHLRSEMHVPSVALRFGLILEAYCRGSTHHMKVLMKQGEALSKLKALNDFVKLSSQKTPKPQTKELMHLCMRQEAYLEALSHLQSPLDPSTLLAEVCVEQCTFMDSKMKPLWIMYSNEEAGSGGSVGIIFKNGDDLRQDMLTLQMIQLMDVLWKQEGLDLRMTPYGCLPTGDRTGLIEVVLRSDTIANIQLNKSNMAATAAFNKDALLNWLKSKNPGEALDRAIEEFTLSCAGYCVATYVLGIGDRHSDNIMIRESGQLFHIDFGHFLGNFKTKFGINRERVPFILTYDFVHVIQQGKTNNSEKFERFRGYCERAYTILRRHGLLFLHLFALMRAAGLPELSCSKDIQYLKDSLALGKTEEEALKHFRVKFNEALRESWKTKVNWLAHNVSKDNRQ
The experiment in a line: Inhibition of PI3Kdelta (unknown origin) in presence of [33P]-ATP incubated for 2 hrs by hotspot kinase assay.
Settings: not given
`O=C(O)c1ccc(CNc2nc3ccc(-c4nc(N5CCOCC5)nc(N5CCOCC5)n4)cc3o2)cc1`: the IC50 is 51 nM.

The species named for the next test is Homo sapiens. The test can be described thus: Selectivity index, ratio of IC50 for inhibition of PI3Kbeta (unknown origin) to IC50 for inhibition of PI3Kalpha (unknown origin).
Settings: not given
As for `O=C(O)c1ccc(CNc2nc3ccc(-c4nc(N5CCOCC5)nc(N5CCOCC5)n4)cc3o2)cc1`, the Ratio IC50 is 16.

Another test is filed under the species Homo sapiens. The test can be described thus: Selectivity index, ratio of IC50 for inhibition of PI3Kdelta (unknown origin) to IC50 for inhibition of PI3Kalpha (unknown origin).
Settings: not given
On to `O=C(O)c1ccc(CNc2nc3ccc(-c4nc(N5CCOCC5)nc(N5CCOCC5)n4)cc3o2)cc1`, for which the Ratio IC50 came out at 8.5.

The species named for another test is Homo sapiens. The experiment in a line: Selectivity index, ratio of IC50 for inhibition of PI3Kgamma (unknown origin) to IC50 for inhibition of PI3Kalpha (unknown origin).
Settings: not given
For the compound `O=C(O)c1ccc(CNc2nc3ccc(-c4nc(N5CCOCC5)nc(N5CCOCC5)n4)cc3o2)cc1`, the Ratio IC50 worked out at 581.

For the next test, the system named is MGC-803. The test can be described thus: Antiproliferative activity against human MGC-803 cells assessed as inhibition of cell growth incubated for 72 hrs by CCK8 assay. The test is classed as functional, cell-based. As to conditions: MGC-803, 72 h. A general note: Formazan colour is commonly taken as a measure of viable cells.
Regarding `Cc1nc(NC(=O)N2CCC[C@H]2C(N)=O)sc1-c1ccnc(C(C)(C)C(F)(F)F)c1` [ALPELISIB], the IC50 turned out to be 430 nM.

The next test relates to MCF7. The test can be described thus: Antiproliferative activity against human MCF7 cells assessed as inhibition of cell growth incubated for 72 hrs by CCK8 assay. The test is classed as functional, cell-based. As to conditions: MCF7, 72 h.
With `Cc1nc(NC(=O)N2CCC[C@H]2C(N)=O)sc1-c1ccnc(C(C)(C)C(F)(F)F)c1` [ALPELISIB], the IC50 stood at 430 nM.

A further test deals with MGC-803. The test can be described thus: Antitumor activity against human MGC-803 cells xenografted in BALB/c nude mouse assessed as reduction in tumor volume at 10 mg/kg, ip administered every day for 3 weeks by vernier caliper method. It is filed as functional, organism-based.
Settings: not given
Turning to `CC(=O)O[C@H]1C(=O)[C@@]2(C)[C@H]([C@H](OC(=O)c3ccccc3)[C@]3(O)C[C@H](OC(=O)[C@H](O)[C@@H](NC(=O)c4ccccc4)c4ccccc4)C(C)=C1C3(C)C)[C@]1(OC(C)=O)CO[C@@H]1C[C@@H]2O` [PACLITAXEL], the result was Active.

The next test relates to MGC-803. The experiment in a line: Antitumor activity against human MGC-803 cells xenografted in BALB/c nude mouse assessed as tumor growth inhibition at 30 mg/kg, po administered every day for 3 weeks. As to conditions: MGC-803, 504 h, read-out: TGI. The test is classed as functional. A general note: A xenograft is tissue or cells of one species grown in another, often human tumour cells in immunodeficient mice.
Turning to `CC(=O)O[C@H]1C(=O)[C@@]2(C)[C@H]([C@H](OC(=O)c3ccccc3)[C@]3(O)C[C@H](OC(=O)[C@H](O)[C@@H](NC(=O)c4ccccc4)c4ccccc4)C(C)=C1C3(C)C)[C@]1(OC(C)=O)CO[C@@H]1C[C@@H]2O` [PACLITAXEL], the inhibition in vivo at 30 mg/kg stood at 60.3%.

For the next test, the target named is Phosphatidylinositol 4,5-bisphosphate 3-kinase catalytic subunit gamma isoform (Homo sapiens, UniProt P48736).
Sequence of Phosphatidylinositol 4,5-bisphosphate 3-kinase catalytic subunit gamma isoform (P48736 whole entry, canonical isoform): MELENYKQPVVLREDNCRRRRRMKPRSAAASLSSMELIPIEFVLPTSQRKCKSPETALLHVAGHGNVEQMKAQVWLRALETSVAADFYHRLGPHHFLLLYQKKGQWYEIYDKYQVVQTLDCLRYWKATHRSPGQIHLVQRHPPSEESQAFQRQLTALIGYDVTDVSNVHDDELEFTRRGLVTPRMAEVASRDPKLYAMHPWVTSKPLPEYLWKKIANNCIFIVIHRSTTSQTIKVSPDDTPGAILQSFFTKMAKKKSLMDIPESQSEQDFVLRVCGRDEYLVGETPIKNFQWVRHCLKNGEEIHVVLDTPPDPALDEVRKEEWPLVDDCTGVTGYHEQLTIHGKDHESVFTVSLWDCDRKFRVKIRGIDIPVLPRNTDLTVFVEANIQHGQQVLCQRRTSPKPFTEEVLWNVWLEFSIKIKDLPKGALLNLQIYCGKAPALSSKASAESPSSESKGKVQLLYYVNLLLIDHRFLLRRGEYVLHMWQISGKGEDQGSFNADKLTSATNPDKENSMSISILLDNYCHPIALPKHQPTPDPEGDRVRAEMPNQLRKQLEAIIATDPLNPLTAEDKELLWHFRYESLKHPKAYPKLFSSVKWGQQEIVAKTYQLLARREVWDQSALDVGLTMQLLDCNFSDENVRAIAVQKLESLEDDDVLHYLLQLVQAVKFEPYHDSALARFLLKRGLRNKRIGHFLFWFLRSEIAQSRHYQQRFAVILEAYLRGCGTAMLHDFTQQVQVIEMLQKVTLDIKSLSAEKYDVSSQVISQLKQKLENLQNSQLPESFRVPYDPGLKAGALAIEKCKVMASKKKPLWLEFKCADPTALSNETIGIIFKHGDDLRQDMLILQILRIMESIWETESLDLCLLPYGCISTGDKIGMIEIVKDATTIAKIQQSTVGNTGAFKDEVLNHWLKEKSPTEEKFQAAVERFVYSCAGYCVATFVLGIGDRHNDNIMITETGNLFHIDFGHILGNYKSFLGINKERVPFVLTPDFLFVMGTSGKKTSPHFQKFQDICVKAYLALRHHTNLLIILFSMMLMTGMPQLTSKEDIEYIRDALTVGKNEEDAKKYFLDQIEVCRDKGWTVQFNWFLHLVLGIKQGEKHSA
Settings: not given
Compound `O=C(O)c1ccc(CNc2nc3ccc(-c4nc(N5CCOCC5)nc(N5CCOCC5)n4)cc3o2)cc1` displayed an IC50 of 3490 nM.

The term IC50 denotes the concentration that gives 50% inhibition.

The values are drawn from ChEMBL document CHEMBL5143740, “Discovery of Novel Phosphoinositide-3-Kinase α Inhibitors with High Selectivity, Excellent Bioavailability, and Long-Acting Efficacy for Gastric Cancer” (J Med Chem, 2022).
